Active and inactive are the calls of the source. The rule behind the calls is not given here.

Sequence of Sphingosine 1-phosphate receptor 4 (Homo sapiens) (O95977 whole entry, looked up): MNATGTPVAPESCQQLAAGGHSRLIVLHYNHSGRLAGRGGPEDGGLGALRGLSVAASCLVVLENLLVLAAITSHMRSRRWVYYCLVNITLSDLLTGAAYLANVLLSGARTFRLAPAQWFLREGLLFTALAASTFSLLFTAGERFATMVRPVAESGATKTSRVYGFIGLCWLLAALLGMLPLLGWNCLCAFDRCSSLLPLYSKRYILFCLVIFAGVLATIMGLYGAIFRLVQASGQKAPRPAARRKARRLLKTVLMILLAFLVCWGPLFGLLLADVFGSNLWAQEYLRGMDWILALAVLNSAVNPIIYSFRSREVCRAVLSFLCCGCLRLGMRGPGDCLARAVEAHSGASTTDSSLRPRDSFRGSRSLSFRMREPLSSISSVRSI

The assay has as its target Sphingosine 1-phosphate receptor 4 (Homo sapiens) (UniProt O95977). Nature of the assay: S1P4 receptor agonist activity, late-stage follow-up, counter-screen for S1PR3 antagonist project, cell-based, FRET, dose response (AID 743430). The following applies: S1P4-expressing cells, FRET reporter, agonist mode.
With `O=C(NC(c1ccc(Cl)cc1)c1nc(-c2ccccc2)no1)c1cccc(Br)c1` (configuration not stated), the EC50 is > 50 µM (inactive).

For `O=C(NC(c1cccc(Cl)c1)c1nc(-c2ccccc2)no1)c1ccc(Cl)c(Cl)c1` (configuration not stated), the EC50 was > 50 µM (inactive).

`Cc1ccc(C(=O)NC(c2ccccc2)c2nc(-c3ccccc3)no2)cc1` (configuration not stated): the EC50 was > 50 µM (inactive).

With `Cc1ccc(C(NC(=O)c2cccc(Cl)c2)c2nc(-c3ccccc3)no2)cc1` (configuration not stated), the EC50 is > 50 µM (inactive).

Consider `O=C(NC(Cc1ccccc1)c1nc(-c2ccccc2)no1)c1cccc(Cl)c1` (configuration not stated), for which the EC50 was > 50 µM (inactive).

For the compound `CCc1ccc(C(NC(=O)c2cccc(Cl)c2)c2nc(-c3ccccc3)no2)cc1` (configuration not stated), the EC50 was > 50 µM (inactive).

`O=C(NC(c1ccc(Cl)c(Cl)c1)c1nc(-c2ccccc2)no1)c1ccc(Cl)cc1` (configuration not stated): the EC50 is > 50 µM (inactive).

`O=C(NC(c1ccc(Br)cc1)c1nc(-c2ccccc2)no1)c1ccc(Cl)c(Cl)c1` (configuration not stated): the EC50 was > 50 µM (inactive).

`N#Cc1ccc(C(=O)NC(c2ccc(Cl)c(Cl)c2)c2nc(-c3ccccc3)no2)cc1` (configuration not stated): the EC50 is > 50 µM (inactive).

For the compound `O=C(NC(c1ccccc1)c1nc(-c2ccccc2)no1)c1ccc(Cl)cc1` (configuration not stated), the EC50 was > 50 µM (inactive).

In the case of `O=C(NC(c1ccc(Cl)cc1)c1nc(-c2ccccc2)no1)c1ccc(Cl)c(Br)c1` (configuration not stated), the EC50 is > 50 µM (inactive).

For the compound `O=C(NC(c1ccc(Cl)cc1)c1nc(-c2cccc(Cl)c2)no1)c1cccc(Cl)c1` (configuration not stated), the EC50 is > 50 µM (inactive).

For the compound `O=C(NC(c1ccccc1)c1nc(-c2ccccc2)no1)c1cccc(Cl)c1` (configuration not stated), the EC50 was > 50 µM (inactive).

In the case of `O=C(c1cccc(Cl)c1)N(CCO)C(c1ccc(Cl)c(Cl)c1)c1nc(-c2ccccc2)no1` (configuration not stated), the EC50 was > 50 µM (inactive).

Regarding `O=C(NC(c1ccc(Cl)cc1)c1nc(-c2ccccn2)no1)c1cccc(Cl)c1` (configuration not stated), the EC50 is > 50 µM (inactive).

Consider `O=C(NC(c1ccc(Cl)c(Cl)c1)c1nc(-c2ccccc2)no1)c1ccc(Cl)c(Cl)c1` (configuration not stated), for which the EC50 was > 50 µM (inactive).

On to `O=C(NC(c1nc(-c2ccccc2)no1)C1CCCCC1)c1ccc(Cl)c(Cl)c1` (configuration not stated), for which the EC50 is > 50 µM (inactive).

In the case of `O=C(NC(c1cccc(Cl)c1)c1nc(-c2ccccc2)no1)c1cc(Cl)cc(Cl)c1` (configuration not stated), the EC50 is > 50 µM (inactive).

Regarding `O=C(NC(c1ccccc1)c1nc(-c2ccccc2)no1)c1cccc(Cl)n1` (configuration not stated), the EC50 is > 50 µM (inactive).

As for `O=C(NC(c1ccc(Cl)cc1)c1nc(-c2ccccc2)no1)c1ccc(Cl)c(Cl)c1` (configuration not stated), the EC50 was > 50 µM (inactive).

For the compound `O=C(NC(c1ccc(Cl)c(Cl)c1)c1nc(-c2ccccc2)no1)c1cccc(Cl)c1` (configuration not stated), the EC50 is > 50 µM (inactive).

For the compound `O=C(NC(c1ccccc1)c1nc(-c2ccccc2)no1)c1cccc(Br)c1` (configuration not stated), the EC50 result was “inactive”.

For `COc1ccc(C(=O)NC(c2ccccc2)c2nc(-c3ccccc3)no2)cc1` (configuration not stated), the EC50 is > 50 µM (inactive).

Take `O=C(NC(c1ccc(Cl)c(Cl)c1)c1nc(-c2ccccc2)no1)c1ccccc1` (configuration not stated): the EC50 was > 50 µM (inactive).

Take `O=C(NC(c1ccc(Cl)cc1)c1nc(-c2ccccc2)no1)c1cccc(Cl)c1` (configuration not stated): the EC50 was > 50 µM (inactive).

Regarding `O=C(NC(c1nc(-c2ccccc2)no1)C1CCOCC1)c1ccc(Cl)c(Cl)c1` (configuration not stated), the EC50 is > 50 µM (inactive).

Regarding `O=C(NC(c1cccc(Cl)c1)c1nc(-c2ccccc2)no1)c1cccc(Cl)c1` (configuration not stated), the EC50 was > 50 µM (inactive).
